Like-named read-outs stand apart in the source and are kept apart here. Square brackets hold non-standard residues; d marks the D form. Aib = CC(C)(N)C(=O)O
What was measured:
[1] = Pharmacokinetic study in minipigs (i.v.); assay type: in vivo, Göttingen minipigs; settings: i.v. administration to minipigs, 2 nmol/kg
Method: This is done in a pharmacokinetic (PK) study, where the terminal half-life (t1/2) of the compound or derivative in question is determined. By terminal half-life is meant the time it takes to halve a certain plasma concentration in the terminal elimination phase.
Female Göttingen minipigs, obtained from Ellegaard Göttingen Minipigs (Dalmose, Denmark), approximately 8-12 months of age and weighing approximately 20-30 kg were used in the studies.
After three weeks of acclimatisation two permanent central venous catheters were implanted in vena cava caudalis in each animal. The animals were allowed at least 10 days recovery after the surgery and were then used for repeated pharmacokinetic studies with a suitable wash-out period between successive dosing.
The compounds of the invention were formulated (40 nmol/ml) in the following vehicle: 8 mM phosphate; 250 mM glycerol; 0.007% polysorbate 20, pH 7.4.
Blood samples (for example 1.3 ml) were collected in EDTA (1.3 ml tube containing K3EDTA to yield 1.6 mg K3EDTA/ml blood) coated tubes and then centrifuged at 4° C. and 2000×g for 10 minutes.
Plasma was within 30 min after centrifugation pipetted into Micronic tubes stored on dry ice and were afterwards kept at −20° C. until analysed for plasma concentration of the compounds using LCMS.
Plasma concentrations of the peptides of the invention were assayed by plasma protein precipitation and analysed by liquid chromatography mass spectrometry (LC-MS). Calibrators were prepared by spiking blank plasma from minipigs with the compounds in the typical range from 0.05 to 200 nM. […] The supernatant was diluted with 1 volumes of Milli-Q water containing 1% Formic acid before injection on the LC-MS system. Individual plasma concentration-time profiles were analysed by a non-compartmental pharmacokinetic method (NCA) in Phoenix v. 6.4 (Pharsight Inc., Mountain View, CA, USA), and the resulting terminal half-lives (harmonic mean) determined. The LC-MS analysis was carried out using a TurboFlow HPLC system from Thermo Fisher Scientific (Bremen, Germany) coupled to either a Q Exactive Orbitrap or Altis Triple Quadrupole (TQ) Mass Spectrometer. […] The Orbitrap mass spectrometer were operating in positive ionization mode with a spray voltage of 4.0 kV using Parallel Reaction Monitoring scan mode using 5 m/z isolation windows on the most abundant charge state of the compounds with a resolution of 35K on the Orbitrap MS.
The data was processed using the Quan Browser in the Xcalibur software from Thermo Fisher Scientific (Bremen, Germany) by fitted the data to linear calibration curves (weighed 1/x^2), used for calculating the concentration in the plasma samples. Quality control samples were included.

[2] = Chemical stability assessment in formulation (UPLC-UV-MS purity loss at 37° C.); assay type: physicochemical; settings: 8 mM phosphate buffer pH 7.4, 1 mg/mL, 2 weeks
Method in brief: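 Degradation tracked by UPLC-UV-MS (formic acid/acetonitrile gradient) on samples drawn over 2 weeks at 37° C. Solutions were made at a 1 mg/mL target in 8 mM phosphate, pH 7.4, kept in sealed vials and frozen after sampling.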

[3] = biological target: T1, human GLP-1 receptor (hGLP-1R) (Homo sapiens, UniProt P43220); assay: GLP-1 receptor assay, method B (CRE-luciferase reporter, BHK cells, 384-well); assay type: cell-based; settings: hGLP-1R Potency, 1% HSA, EC50, methods B, in the presence of 1% HSA
T1 construct: expressed in transfected cells
T1 sequence (P43220 24-463): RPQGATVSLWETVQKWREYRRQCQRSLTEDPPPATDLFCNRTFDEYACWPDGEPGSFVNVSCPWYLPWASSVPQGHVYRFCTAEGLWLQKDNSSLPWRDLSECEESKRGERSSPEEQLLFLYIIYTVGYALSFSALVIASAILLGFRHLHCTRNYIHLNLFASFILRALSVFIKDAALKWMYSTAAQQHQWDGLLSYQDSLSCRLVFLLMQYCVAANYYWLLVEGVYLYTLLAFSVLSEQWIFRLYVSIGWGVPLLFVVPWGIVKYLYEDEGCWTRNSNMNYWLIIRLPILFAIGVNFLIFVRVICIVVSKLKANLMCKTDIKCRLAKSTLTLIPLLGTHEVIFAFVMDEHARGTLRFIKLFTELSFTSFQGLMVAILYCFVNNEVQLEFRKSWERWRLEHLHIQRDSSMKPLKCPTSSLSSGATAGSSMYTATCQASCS
Method: (§1) To assess how the activation of the receptors is potentially influenced by the presence of human serum albumin (HSA), the in vitro assays were performed in the absence of HSA and presence of 1% (w/v) HSA.
Cells at approximately 80-90% confluence were washed once in PBS (Gibco 14190-094) and loosened from the cell flasks with Versene (Gibco, 15040-033). […] Cells were aliquoted and stored at −180° C. until use.
(§2) The assay buffer consisted of DMEM without phenol red (Gibco, 11880-028) supplemented with 1× GlutaMAX (Gibco, 35050-038), 10 mM HEPES (Gibco, 15630-056), 1% (w/v) ovalbumin (Sigma, A5503) and 0.1% (v/v) Pluronic F-68 (Gibco, 24040-032) either with HSA or without HSA (Sigma, A9511).
Serial dilutions were transferred to a 384-well assay plate (PerkinElmer/Revvity, 6007688) and mixed with an equal volume (10 μL) of assay buffer without or with 3% (w/v) HSA (Sigma, A-9511). Frozen stocks of hGLP-1R BHK Cre-Luc cells were thawed in a 37° C. water bath, washed once in PBS (Gibco 14190-094), diluted to 1.5×10^5 (1.5E+5) cells/mL in assay buffer (without HSA) and added (10 μL) to each well of the 384-well assay plate. After a short centrifugation, the assay plates were incubated for 3 hours at 37° C. in 5% CO2 and let to equilibrated at room temperature for 10 minutes before the addition of 30 μL steadylite Plus™ PerkinElmer/Revvity, 6066759) per well. Plates were sealed and incubated at room temperature with gentle shaking for 30 minutes while protected from light. Luminescence was detected on a luminescence plate reader e.g. a Synergy 2 (BioTek).

[4] = biological target: T2, human amylin receptor (hAMYR3) (Homo sapiens, UniProt O60896+P30988); assay: Amylin receptor assay, method B (CRE-luciferase reporter, BHK cells); assay type: cell-based
T2 construct: host or cells: BHK cells (Hollex-1 line expressing hCTR(a) and CRE-Luc), further transfected with human RAMP3
Method in brief: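 BHK cells with CRE-luciferase, co-expressing hAMYR3 and transfected with human RAMP3, seeded overnight, then exposed 3 h at 37 °C to compound. Buffer: phenol red-free DMEM, 10 mM HEPES, 1% ovalbumin, with 0% or 1% (w/v) HSA. Luminescence read after 30 min with steadylite Plus.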

[5] = biological target: T3, human GIP receptor (hGIPR) (Homo sapiens, UniProt P48546); assay: GIP receptor assay, method B (CRE-luciferase reporter, BHK cells, 384-well); assay type: cell-based
T3 construct: expressed in transfected cells
T3 sequence (P48546 22-466): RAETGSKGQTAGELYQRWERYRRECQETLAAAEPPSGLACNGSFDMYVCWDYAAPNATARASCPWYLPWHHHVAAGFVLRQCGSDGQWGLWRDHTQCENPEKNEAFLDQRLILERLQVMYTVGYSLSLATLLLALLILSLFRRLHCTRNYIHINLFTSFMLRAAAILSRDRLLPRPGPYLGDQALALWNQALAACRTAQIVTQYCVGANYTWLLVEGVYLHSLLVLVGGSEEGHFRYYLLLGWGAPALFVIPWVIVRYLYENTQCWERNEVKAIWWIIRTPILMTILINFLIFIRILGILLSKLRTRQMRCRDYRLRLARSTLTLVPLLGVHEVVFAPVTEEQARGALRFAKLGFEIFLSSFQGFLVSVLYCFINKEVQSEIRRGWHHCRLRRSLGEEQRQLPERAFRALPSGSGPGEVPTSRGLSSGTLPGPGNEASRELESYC
Method: as §1
Activation of the human GIP receptor leads to increased intra-cellular concentrations of cyclic AMP (cAMP) and the consequent transcription activation from promoters containing multiple copies of the cAMP response element (CRE). It is thus possible to measure GIP receptor activity using a CRE-luciferase reporter gene introduced into Baby Hamster Kidney (BHK) cells co-expressing the human GIP receptor.
Cells at about 80-90% confluency were washed once with PBS (Gibco 14190-094) and detached from the cell flasks with Versene (Gibco, 15040-066). After centrifugation, the cells were counted, resuspended and diluted to approximately 1.5-3.0×10^6 (1.5E+6 to 3.0E+6) cells/mL in Recovery Cell Culture Freezing Medium (Gibco, 12648-010) and stored at −180° C. in suitable aliquots until use.
as §2
Serial dilutions were transferred to a 384-well assay plate (PerkinElmer/Revvity, 6007688) and mixed with an equal volume (10 μL) of assay buffer without or with 3% HSA (Sigma, A-9511). Frozen stocks of hGIPR BHK Cre-Luc cells were thawed in a 37° C. water bath, washed once in PBS (Gibco 14190-094), diluted to 1.5×10^5 (1.5E+5) cells/mL in assay buffer (without HSA) and added (10 μL) to each well of the 384-well assay plate. After a short centrifugation, the assay plates were incubated for 3 hours at 37° C. in 5% CO2 and let to equilibrated at room temperature for 10 minutes before the addition of 30 μL steadylite Plus™ (PerkinElmer/Revvity, 6066759) per well. Plates were sealed and incubated at room temperature with gentle shaking for 30 minutes while protected from light. Luminescence was detected on a luminescence plate reader e.g. a Synergy 2 (BioTek).

human GLP-1 receptor = human GLP-1 receptor (human, UniProt P43220 24-463); assay: cell-based or functional assay
human GIP receptor = biological target: T4, human GIP receptor (human, UniProt P48546 22-466); assay: cell-based or functional assay
T4 sequence (looked up): T3 sequence (P48546 22-466)

[6] = biological target: T5, human amylin-3(a) receptor (human, UniProt P30988 25-474; O60896 24-148); assay: cell-based or functional assay
T5 sequence (looked up) 1: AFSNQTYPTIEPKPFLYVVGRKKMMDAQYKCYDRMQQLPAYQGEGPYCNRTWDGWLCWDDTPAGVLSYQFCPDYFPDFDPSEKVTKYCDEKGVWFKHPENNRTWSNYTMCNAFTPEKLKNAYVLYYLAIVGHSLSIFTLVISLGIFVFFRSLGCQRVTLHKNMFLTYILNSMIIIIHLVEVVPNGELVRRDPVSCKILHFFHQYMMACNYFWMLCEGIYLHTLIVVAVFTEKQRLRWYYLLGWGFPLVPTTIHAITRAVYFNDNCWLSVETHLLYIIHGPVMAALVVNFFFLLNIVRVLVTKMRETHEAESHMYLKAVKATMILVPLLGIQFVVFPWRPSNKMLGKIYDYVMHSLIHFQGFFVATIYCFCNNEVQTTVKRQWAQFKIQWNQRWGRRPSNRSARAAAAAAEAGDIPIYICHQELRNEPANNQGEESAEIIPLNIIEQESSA
T5 sequence (looked up) 2: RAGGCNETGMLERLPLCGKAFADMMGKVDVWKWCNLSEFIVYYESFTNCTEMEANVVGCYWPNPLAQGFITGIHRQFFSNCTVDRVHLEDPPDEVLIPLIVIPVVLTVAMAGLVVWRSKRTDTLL

Molecule: CC[C@H](C)[C@H](NC(=O)[C@H](CCC(=O)O)NC(=O)[C@H](CCC(=O)O)NC(=O)[C@H](CC(C)C)NC(=O)[C@H](CC(C)C)NC(=O)[C@@H](NC(=O)[C@H](CO)NC(=O)[C@H](Cc1ccc(O)cc1)NC(=O)[C@H](CC(=O)O)NC(=O)[C@H](CO)NC(=O)[C@@H](NC(=O)[C@H](Cc1ccccc1)NC(=O)[C@@H](NC(=O)CNC(=O)[C@H](CCC(=O)O)NC(=O)C(C)(C)NC(=O)[C@@H](N)Cc1ccc(O)cc1)[C@@H](C)O)[C@@H](C)O)[C@@H](C)CC)C(=O)N[C@@H](C)C(=O)N[C@@H](C)C(=O)N[C@@H](CCCNC(=N)N)C(=O)N[C@@H](CCC(=O)O)C(=O)N[C@@H](Cc1ccccc1)C(=O)N[C@H](C(=O)N[C@@H](CCC(=O)O)C(=O)N[C@@H](Cc1c[nH]c2ccccc12)C(=O)N[C@@H](CC(C)C)C(=O)N[C@@H](CC(C)C)C(=O)N[C@@H](C)C(=O)NCC(=O)NCC(=O)N1CCC[C@H]1C(=O)N[C@@H](CO)C(=O)N[C@@H](CO)C(=O)NCC(=O)N[C@@H](C)C(=O)NCC(=O)N[C@@H](CCC(N)=O)C(=O)N[C@@H](C)C(=O)N1CCC[C@H]1C(=O)NCC(=O)N[C@@H](CCC(N)=O)C(=O)N[C@@H](C)C(=O)N1CCC[C@H]1C(=O)N[C@@H](CC(C)C)C(=O)N[C@@H](C)C(=O)N[C@@H](CO)C(=O)N[C@@H](Cc1c[nH]cn1)C(=O)N[C@@H](CC(C)C)C(=O)N[C@@H](CO)C(=O)N[C@H](C(=O)N[C@@H](C)C(=O)N[C@@H](CCC(N)=O)C(=O)N[C@H](C(=O)N[C@@H](CCC(N)=O)C(=O)N[C@@H](CCCNC(=N)N)C(=O)N[C@@H](CC(C)C)C(=O)N[C@@H](CO)C(=O)N[C@@H](C)C(=O)N[C@@H](CCC(=O)O)C(=O)N[C@@H](CC(C)C)C(=O)N[C@@H](Cc1c[nH]cn1)C(=O)N[C@@H](CCCCNC(=O)COCCOCCNC(=O)COCCOCCNC(=O)CC[C@H](NC(=O)CCCCCCCCCCCCCCCCCCC(=O)O)C(=O)O)C(=O)N[C@@H](CC(C)C)C(=O)N[C@@H](C)C(=O)N[C@H](C(=O)N[C@@H](CC(C)C)C(=O)N1CCC[C@H]1C(=O)N[C@@H](CCCNC(=N)N)C(=O)N[C@H](C(=O)N[C@@H](CCC(=O)O)C(=O)N[C@H](C(=O)NCC(=O)N[C@@H](CO)C(=O)NCC(=O)N[C@@H](CO)C(=O)N1CCC[C@H]1C(N)=O)[C@@H](C)O)[C@@H](C)O)[C@@H](C)O)[C@@H](C)O)[C@@H](C)O)[C@@H](C)CC [Compound 125]
- Terminal half-life t1/2 [1]: 100 h
- Purity loss per week at 37° C. [2]: 0.5%

Molecule: CC[C@H](C)[C@H](NC(=O)[C@H](CCC(=O)O)NC(=O)[C@H](CCC(=O)O)NC(=O)[C@H](CC(C)C)NC(=O)[C@H](CC(C)C)NC(=O)[C@H](CCCCNC(=O)COCCOCCNC(=O)COCCOCCNC(=O)CC[C@H](NC(=O)CCCCCCCCCCCCCCCCCCC(=O)O)C(=O)O)NC(=O)[C@H](CO)NC(=O)[C@H](Cc1ccc(O)cc1)NC(=O)[C@H](CC(=O)O)NC(=O)[C@H](CO)NC(=O)[C@@H](NC(=O)[C@H](Cc1ccccc1)NC(=O)[C@@H](NC(=O)CNC(=O)[C@H](CCC(=O)O)NC(=O)C(C)(C)NC(=O)[C@@H](N)Cc1ccc(O)cc1)[C@@H](C)O)[C@@H](C)O)C(=O)N[C@@H](C)C(=O)N[C@@H](C)C(=O)N[C@@H](CCCNC(=N)N)C(=O)N[C@@H](CCC(=O)O)C(=O)N[C@@H](Cc1ccccc1)C(=O)N[C@H](C(=O)N[C@@H](CCC(=O)O)C(=O)N[C@@H](Cc1c[nH]c2ccccc12)C(=O)N[C@@H](CC(C)C)C(=O)N[C@@H](CC(C)C)C(=O)N[C@@H](C)C(=O)NCC(=O)NCC(=O)N1CCC[C@H]1C(=O)N[C@@H](CO)C(=O)N[C@@H](CO)C(=O)NCC(=O)N[C@@H](C)C(=O)NCC(=O)N[C@@H](C)C(=O)N[C@@H](CO)C(=O)N[C@@H](CCC(=O)O)C(=O)N[C@@H](CC(C)C)C(=O)N[C@@H](CO)C(=O)N[C@H](C(=O)N[C@@H](C)C(=O)N[C@@H](CCC(N)=O)C(=O)N[C@@H](CC(C)C)C(=O)NCC(=O)N[C@@H](CCCNC(=N)N)C(=O)N[C@@H](CC(C)C)C(=O)N[C@@H](CO)C(=O)N[C@@H](C)C(=O)N[C@@H](CCC(=O)O)C(=O)N[C@@H](CC(C)C)C(=O)N[C@@H](Cc1c[nH]cn1)C(=O)N[C@@H](CCC(N)=O)C(=O)N[C@@H](CC(C)C)C(=O)N[C@@H](C)C(=O)N[C@H](C(=O)N[C@@H](CC(C)C)C(=O)N1CCC[C@H]1C(=O)N[C@@H](CCCNC(=N)N)C(=O)N[C@H](C(=O)N[C@@H](CCC(=O)O)C(=O)N[C@H](C(=O)NCC(=O)N[C@@H](CO)C(=O)NCC(=O)N[C@@H](CO)C(=O)N1CCC[C@H]1C(N)=O)[C@@H](C)O)[C@@H](C)O)[C@@H](C)O)[C@@H](C)O)[C@@H](C)CC [Compound 183]
- EC50 [3]: 0.744 nM
- Purity loss per week at 37° C. [2]: 1.3%
- EC50 ([4]; hAMYR3 Potency, 1% HSA, EC50, methods B, in the presence of 1% HSA): 0.108 nM
- EC50 ([4]; method B, absence of HSA, read-out: hAMYR3 Potency, no HSA, EC50): 0.0062 nM
- EC50 ([5]; hGIPR Potency, 1% HSA, EC50, methods B, in the presence of 1% HSA): 0.0714 nM
- EC50 ([5]; method B, absence of HSA, read-out: hGIPR Potency, no HSA, EC50): 0.002 nM

B1: Compound 217 (peptide)
peptide: Y[Aib]EGTFTSDYSILLEEIAAREFIEWLLAGGPSSGAGQAPGEAPGASHLSTAQTQRLSAELHKLATLPRTETGSGSP-NH2
modifications: also: further groups not given here
- hGLP-1R Potency, no HSA, EC50 [pM] (human GLP-1 receptor): 9 pM

B2: Compound 219 (peptide)
peptide: Y[Aib]EGTFTSDYSILLEEIAAREFIEWLLAGGPSSGAGQAPGQAEGASHLSTAQTQRLSAELHKLATLPRTETGSGSP-NH2
modifications: also: further groups not given here
- hGIPR Potency, no HSA, EC50 [pM] (human GIP receptor): 0.5 pM
- hAMYR3 Potency, no HSA, EC50 [pM] [6]: 5 pM

Source: patent US20260174875A1 (Novo Nordisk A/S, priority 2023, published 2026)
